# Measurements taken from paper PMC10367051, “Comprehensive Mechanistic View of the Hydrolysis of Oxadiazole-Based Inhibitors by Histone Deacetylase 6 (HDAC6)” (ACS Chemical Biology, 2023).
# Assay: Control reaction without the enzyme (assay buffer, LC-MS/MS)
# Assay type: physicochemical
# Conditions: 20 μM 8, assay buffer pH 7.4, 30 °C
# Description: Mass spectrometry quantification of inhibitors/reaction products was carried out with a Shimadzu LCMS-8040 instrument (Shimadzu, HPLC Prominence system). Analytes were separated on a Kinetex XB-C18 2.6 μm, 100 Å column (50 × 2.1 mm; Phenomenex) in a linear 15–60% CH3CN/H2O gradient containing 0.1% formic acid at a flow rate of 0.8 mL min^–1 over 4 min. Multiple reaction monitoring (MRM) parameters were optimized for each analyte, and corresponding major CID fragments were used for quantification. Analytes were quantified using corresponding calibration curves generated from pure compounds dissolved in water.
# Twenty micromolar solutions of compounds were mixed with 1 μM zHDAC6 in a 96-well plate in an assay buffer comprising 50 mM HEPES, 140 mM NaCl, and 10 mM KCl at pH 7.4. […] Four microliter aliquots of reaction mixtures were injected into the system directly from the 96-well plate, and inhibitors/reaction products were quantitated as described above.
smiles,measurement,value
CS(=O)(=O)N(Cc1ccc(-c2nnc(C(F)F)o2)cn1)c1cccc(Cl)c1 [compound 8],hydrolysis in the control reaction without the enzyme,no hydrolysis was observed
